≈ marks a conversion by molar mass, not a printed value. Read-outs that look alike come from different tables or passages of the source.
Key:
Aeromonas salmonicida = assay: MIC determination in broth, 96 well plates (OD600 and plating); type: cell-based; settings: Aeromonas salmonicida (furunculosis), (TSA/TSB)/20° C.
Streptococcus agalactiae = assay: as above; type: cell-based; settings: Streptococcus agalactiae (streptococcosis), (TSAY/TSBY)/28° C.
Streptococcus iniae = assay: as above; type: cell-based; settings: Streptococcus iniae (streptococcosis), (TSAY/TSBY)/28° C.
Tenacibaculum maritimum = assay: as above; type: cell-based; settings: Tenacibaculum maritimum (tenacibaculosis), (MA/MB)/15° C.
Saprolegnia parasitica = assay: Minimum lethal concentration (MLC) determination; type: cell-based; settings: Saprolegnia parasitica (saprolegniasis); GY/20° C.; in triplicate
Vibrio parahaemolyticus = assay: MIC determination in broth, 96 well plates (OD600 and plating)

CSC1=C(C)C(=O)C(=O)NC1=O [RejuAgro A]
MIC (Aeromonas salmonicida): 1.56 µg/mL (≈ 8.42 µM)
MIC (Aeromonas salmonicida; read-out: MIC): 1.56 µg/mL (≈ 8.42 µM)
MIC (Streptococcus agalactiae): 1.56 µg/mL (≈ 8.42 µM)
MIC (Streptococcus agalactiae; read-out: MIC): 1.56 µg/mL (≈ 8.42 µM)
MIC (Streptococcus iniae): 3.13 µg/mL (≈ 16.9 µM)
MIC (Streptococcus iniae; read-out: MIC): 3.13 µg/mL (≈ 16.9 µM)
MIC (Tenacibaculum maritimum): 12.5 µg/mL (≈ 67.5 µM)
MIC (Tenacibaculum maritimum; read-out: MIC): 12.5 µg/mL (≈ 67.5 µM)
MLC (minimum lethal concentration) (Saprolegnia parasitica): 100 µg/mL (≈ 540 µM)
MIC (Vibrio parahaemolyticus; Vibrio parahaemolyticus): 0.39 µg/mL (≈ 2.11 µM)
MIC (Vibrio parahaemolyticus; Vibrio parahaemolyticus (vibriosis, acute hepatopancreatic necrosis disease), (TSA2/TSB2)/37° C.): 0.39 µg/mL (≈ 2.11 µM)
